Experimental findings from PMC10053552, “Multiple Bioactivities of Peptides from Hydrolyzed Misgurnus anguillicaudatus” (Molecules, 2023) are described below.

A short description of one assay: DPPH scavenging activity. It counts as biochemical. The conditions noted are these: 0.5 mg/mL, glutathione at the same concentration. (In general: DPPH is a stable violet radical that fades when it is reduced.)
For assay [1], the system named is pancreatic cholesterol esterase (CE). Nature of the assay: Pancreatic CE inhibitory activity. It counts as biochemical. The conditions noted are these: 1 mg/mL (Figure 6a); pNPB substrate, pH 7.2, 37 °C, 30 min, 405 nm.
Assay [2] can be described thus: Hydroxyl radical scavenging activity. It counts as biochemical. The conditions noted are these: 0.5 mg/mL; amount higher than that of glutathione at the same concentration.
Assay [3] has as its target pancreatic cholesterol esterase (CE) (UniProt P19835).
The target of assay [4] is angiotensin-converting enzyme (ACE) (UniProt P12821).
Sequence of UniProt P12821 (P12821 30-1256): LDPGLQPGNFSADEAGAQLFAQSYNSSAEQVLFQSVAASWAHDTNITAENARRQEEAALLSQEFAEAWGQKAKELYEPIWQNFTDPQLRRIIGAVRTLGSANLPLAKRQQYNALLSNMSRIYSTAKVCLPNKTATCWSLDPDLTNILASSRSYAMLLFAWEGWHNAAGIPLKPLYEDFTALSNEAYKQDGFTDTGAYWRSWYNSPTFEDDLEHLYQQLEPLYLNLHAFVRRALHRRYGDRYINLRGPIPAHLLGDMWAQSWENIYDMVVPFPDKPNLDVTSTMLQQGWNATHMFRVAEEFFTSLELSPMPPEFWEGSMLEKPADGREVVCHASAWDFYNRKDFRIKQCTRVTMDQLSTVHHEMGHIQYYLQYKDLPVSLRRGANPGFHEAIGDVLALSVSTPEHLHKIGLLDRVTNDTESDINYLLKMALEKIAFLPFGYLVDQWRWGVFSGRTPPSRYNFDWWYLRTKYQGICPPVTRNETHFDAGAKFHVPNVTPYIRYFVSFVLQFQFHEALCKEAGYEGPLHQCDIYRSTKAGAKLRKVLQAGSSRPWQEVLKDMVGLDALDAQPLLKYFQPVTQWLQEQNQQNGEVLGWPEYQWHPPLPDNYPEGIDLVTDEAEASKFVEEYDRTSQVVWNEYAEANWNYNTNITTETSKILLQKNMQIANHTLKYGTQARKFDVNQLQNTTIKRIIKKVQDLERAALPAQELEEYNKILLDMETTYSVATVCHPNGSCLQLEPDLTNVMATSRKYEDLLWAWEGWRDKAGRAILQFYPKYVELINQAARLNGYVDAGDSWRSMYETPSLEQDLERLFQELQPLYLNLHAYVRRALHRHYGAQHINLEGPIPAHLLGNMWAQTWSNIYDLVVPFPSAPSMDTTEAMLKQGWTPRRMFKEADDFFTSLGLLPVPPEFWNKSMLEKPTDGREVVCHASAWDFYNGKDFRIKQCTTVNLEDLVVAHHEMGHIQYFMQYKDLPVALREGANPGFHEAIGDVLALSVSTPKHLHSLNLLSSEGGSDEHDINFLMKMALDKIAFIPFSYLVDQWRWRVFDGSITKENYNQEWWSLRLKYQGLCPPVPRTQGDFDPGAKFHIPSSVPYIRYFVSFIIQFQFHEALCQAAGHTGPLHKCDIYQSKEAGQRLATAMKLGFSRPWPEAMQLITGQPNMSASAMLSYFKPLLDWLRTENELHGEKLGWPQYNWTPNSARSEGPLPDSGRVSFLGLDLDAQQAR

Sequence of UniProt P19835 (P19835 21-753): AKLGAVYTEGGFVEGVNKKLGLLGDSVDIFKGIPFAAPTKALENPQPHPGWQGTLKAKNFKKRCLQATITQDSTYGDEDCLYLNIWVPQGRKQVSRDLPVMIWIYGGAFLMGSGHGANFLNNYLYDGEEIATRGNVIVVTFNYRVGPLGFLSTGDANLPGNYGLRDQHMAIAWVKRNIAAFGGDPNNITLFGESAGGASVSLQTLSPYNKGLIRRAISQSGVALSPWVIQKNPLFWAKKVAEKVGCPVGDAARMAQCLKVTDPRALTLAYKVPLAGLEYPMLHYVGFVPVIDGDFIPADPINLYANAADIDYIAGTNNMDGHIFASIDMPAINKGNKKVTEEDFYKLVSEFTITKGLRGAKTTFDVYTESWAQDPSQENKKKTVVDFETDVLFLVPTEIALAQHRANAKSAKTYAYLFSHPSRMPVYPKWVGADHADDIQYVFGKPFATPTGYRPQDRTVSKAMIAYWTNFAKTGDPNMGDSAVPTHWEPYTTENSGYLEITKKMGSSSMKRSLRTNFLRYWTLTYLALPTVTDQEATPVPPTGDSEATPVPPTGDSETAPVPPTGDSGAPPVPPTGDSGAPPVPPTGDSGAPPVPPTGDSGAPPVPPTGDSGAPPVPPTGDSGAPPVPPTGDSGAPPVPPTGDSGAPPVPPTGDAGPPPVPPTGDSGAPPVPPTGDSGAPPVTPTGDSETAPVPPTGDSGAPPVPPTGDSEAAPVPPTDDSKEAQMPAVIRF

Take “DAGAGIAL [Peptide D-5, peptide DAGAGIAL identified in loach hydrolysate component F2, solid-phase synthesized]”: the “DPPH scavenging activity as percentage of that of glutathione” value (“DPPH scavenging activity as percentage” for short) in “DPPH scavenging activity” is “more than 90%”.

Regarding “NDHFVKL [Peptide D-3, peptide NDHFVKL identified in loach hydrolysate component F2, solid-phase synthesized]”, in “DPPH scavenging activity”, the “DPPH scavenging activity as percentage” value was “more than 90%”. Also, in assay [1], the “Pancreatic CE inhibition” value is recorded as “exhibited inhibitory effects on pancreatic CE”. For the molecule “SERDPSNIKWGDAGAQ [Peptide D-1, peptide … identified in loach hydrolysate component F2, solid-phase synthesized]”, the “DPPH scavenging activity as percentage” value in the assay “DPPH scavenging activity” is “more than 90%”. Also, the “Hydroxyl radical scavenging activity: excess over glutathione” value in assay [2] turned out to be 15.87%. As for TVDGPSGKLWR [peptide D-2 (…)], the IC50 of pancreatic CE inhibition (enzyme activity, pNPB hydrolysis, absorbance at 405 nm, 37 °C, pH 7.2) in assay [3] stood at 2.62 mM. For AFRVPTP [peptide D-4 (AFRVPTP)], in assay [4], the ACE inhibitory activity, percent inhibition (FAPGG hydrolysis; peptide concentration not given) stood at 92.1% and the IC50 of ACE inhibition (enzyme activity, FAPGG hydrolysis, absorbance at 340 nm, 37 °C, pH 8.3) came out at 0.12 mM.
